Results on eight molecules are retold here after patent US12077503B2, “Substituted cyclic amides and their use as herbicides” (FMC CORPORATION, priority 2015, dated 2024).

Common to all, as to experiment: Test A preemergence
Assay type in all cases: in vivo

For one assay, the system named is Kochia (Kochia scoparia). Particulars: Bassia scoparia, pre-emergence, 240 h; for pest or weed control at 125 g/ha: 125 g ai/ha; for pest or weed control at 500 g/ha: 500 g ai/ha. An outline of the steps: (§1)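 Compounds were formulated in a non-phytotoxic solvent mixture with surfactant and applied as a preemergence directed soil spray after seeding, or sprayed postemergence over plants 2 to 10 cm tall at the one- to two-leaf stage. Evaluation after about 10 d compared treated with untreated controls, using a scale from 0 (no effect) to 100 (complete control).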

Assay [1] deals with barnyardgrass (Echinochloa crus-galli). The settings on record: Echinochloa crus-galli, pre-emergence, 240 h; for pest or weed control at 125 g/ha: 125 g ai/ha; for pest or weed control at 500 g/ha: 500 g ai/ha. The method in brief: as §1
Assay [2] concerns giant foxtail (Setaria faberii). Particulars: Setaria faberi, pre-emergence, 240 h; for pest or weed control at 125 g/ha: 125 g ai/ha; for pest or weed control at 500 g/ha: 500 g ai/ha. An outline of the steps:
as §1

Assay [3] deals with pigweed (Amaranthus retroflexus). The settings on record: Amaranthus retroflexus, pre-emergence, 240 h; for pest or weed control at 125 g/ha: 125 g ai/ha; for pest or weed control at 500 g/ha: 500 g ai/ha.
The subject of assay [4] is ragweed (common ragweed, Ambrosia elatior). Particulars: Ambrosia artemisiifolia, pre-emergence, 240 h; for pest or weed control at 125 g/ha: 125 g ai/ha; for pest or weed control at 500 g/ha: 500 g ai/ha. An outline of the steps:
as §1

Setting [5] is: Preemergence, visual injury rating after approximately 10 d, read-out: Kochia plant response rating (0 to 100 scale, 0 is no effect, 100 is complete control).
Setting [6] is: preemergence, visual injury rating about 10 d after treatment, 0 to 100 scale (0 no effect, 100 complete control), read-out: Kochia plant response rating.
Where [7] appears, read: Preemergence, visual injury rating after approximately 10 d, read-out: Barnyardgrass plant response rating (0 to 100 scale, 0 is no effect, 100 is complete control).
Setting [8] is: preemergence, visual injury rating about 10 d after treatment, 0 to 100 scale (0 no effect, 100 complete control), read-out: Barnyardgrass plant response rating.
[9] abbreviates: Preemergence, visual injury rating after approximately 10 d, read-out: Foxtail, Giant plant response rating (0 to 100 scale, 0 is no effect, 100 is complete control).
The mark [10] stands for this setting: preemergence, visual injury rating about 10 d after treatment, 0 to 100 scale (0 no effect, 100 complete control), read-out: Foxtail, Giant plant response rating.
[11] abbreviates: Preemergence, visual injury rating after approximately 10 d, read-out: Pigweed plant response rating (0 to 100 scale, 0 is no effect, 100 is complete control).
[12] abbreviates: preemergence, visual injury rating about 10 d after treatment, 0 to 100 scale (0 no effect, 100 complete control), read-out: Pigweed plant response rating.
[13] abbreviates: Preemergence, visual injury rating after approximately 10 d, read-out: Ragweed plant response rating (0 to 100 scale, 0 is no effect, 100 is complete control).
Where [14] appears, read: preemergence, visual injury rating about 10 d after treatment, 0 to 100 scale (0 no effect, 100 complete control), read-out: Ragweed plant response rating.
[15] abbreviates: preemergence, 0 to 100 scale where 0 is no effect and 100 is complete control, approx. 10 d, read-out: Kochia plant response rating.
The mark [16] stands for this setting: preemergence, 0 to 100 scale where 0 is no effect and 100 is complete control, approx. 10 d, read-out: Pigweed plant response rating.
Setting [17] is: preemergence, 0 to 100 scale where 0 is no effect and 100 is complete control, approx. 10 d, read-out: Ragweed plant response rating.
Setting [18] is: preemergence, 0 to 100 scale where 0 is no effect and 100 is complete control, read-out: Kochia plant response rating.
Where [19] appears, read: preemergence, 0 to 100 scale where 0 is no effect and 100 is complete control, approx. 10 d, read-out: Barnyardgrass plant response rating.
Where [20] appears, read: preemergence, 0 to 100 scale where 0 is no effect and 100 is complete control, read-out: Barnyardgrass plant response rating.
Setting [21] is: preemergence, 0 to 100 scale where 0 is no effect and 100 is complete control, approx. 10 d, read-out: Foxtail, Giant plant response rating.
The mark [22] stands for this setting: preemergence, 0 to 100 scale where 0 is no effect and 100 is complete control, read-out: Foxtail, Giant plant response rating.
The mark [23] stands for this setting: preemergence, 0 to 100 scale where 0 is no effect and 100 is complete control, read-out: Pigweed plant response rating.
[24] abbreviates: preemergence, 0 to 100 scale where 0 is no effect and 100 is complete control, read-out: Ragweed plant response rating.

Molecules are shown by their SMILES. Like-named read-outs stand apart in the source and are kept apart here.

For `Cc1ccc([C@H]2CNC(=S)[C@@H]2C(=O)Nc2ccccc2F)cc1` (racemic) [Compound 945], the pest or weed control at 125 g/ha came to 0% in the assay on Kochia (Kochia scoparia) (setting [5]); 60% in assay [1] (setting [7]); 0% in assay [2] (setting [9]); 0% in assay [3] (setting [11]); 0% in assay [4] (setting [13]). The pest or weed control at 500 g/ha in the assay on Kochia (Kochia scoparia) (setting [6]) is 0%; in assay [1] (setting [8]), 90%; in assay [2] (setting [10]) it was 70%; in assay [3] (setting [12]), 0%; in assay [4] (setting [14]), 0%.

Take `Cc1ccc([C@H]2CNC(=S)[C@@H]2C(=O)Nc2cccc(F)c2F)cc1` (racemic) [Compound 946]: the pest or weed control at 125 g/ha in the assay with Kochia (Kochia scoparia) (setting [5]) came out at 0%; in assay [1] (setting [7]) it was 60%; in assay [2] (setting [9]), 0%; in assay [3] (setting [11]), 0%; in assay [4] (setting [13]), 0%. Moreover, the pest or weed control at 500 g/ha with Kochia (Kochia scoparia) (setting [6]) is 50%; in assay [1] (setting [8]) it was 80%; in assay [2] (setting [10]), 20%; in assay [3] (setting [12]) it was 0%; in assay [4] (setting [14]), 0%.

For the molecule `O=C(Nc1cccc(F)c1F)[C@H]1C(=S)NC[C@@H]1c1ccc(C(F)(F)F)cc1` (racemic) [Compound 1048], the pest or weed control at 125 g/ha is 90% in the assay with Kochia (Kochia scoparia) (setting [5]); 90% in assay [1] (setting [7]); 90% in assay [2] (setting [9]); 80% in assay [3] (setting [11]); 50% in assay [4] (setting [13]). For the same molecule, the pest or weed control at 500 g/ha with Kochia (Kochia scoparia) (setting [6]) came out at 90%; in assay [1] (setting [8]), 90%; in assay [2] (setting [10]), 90%; in assay [3] (setting [12]), 90%; in assay [4] (setting [14]), 80%.

In the case of `O=C(Nc1ccccc1C(F)(F)F)[C@H]1C(=S)NC[C@@H]1c1ccc(C(F)(F)F)cc1` (racemic) [Compound 1049], the pest or weed control at 125 g/ha in the assay on Kochia (Kochia scoparia) (setting [5]) stood at 30%; in assay [1] (setting [7]), 30%; in assay [2] (setting [9]) it was 80%; in assay [3] (setting [11]) it was 0%; in assay [4] (setting [13]), 20%. The pest or weed control at 500 g/ha was 70% in the assay with Kochia (Kochia scoparia) (setting [6]); 70% in assay [1] (setting [8]); 90% in assay [2] (setting [10]); 60% in assay [3] (setting [12]); 40% in assay [4] (setting [14]).

For `Cc1ccc([C@H]2CN(C)C(=O)[C@]2(O)C(=O)Nc2cccc(F)c2F)cc1` (racemic) [Compound 1059], the pest or weed control at 125 g/ha in the assay on Kochia (Kochia scoparia) (setting [15]) turned out to be 0%; in assay [1] (setting [7]), 70%; in assay [2] (setting [9]), 70%; in assay [3] (setting [16]), 0%; in assay [4] (setting [17]), 0%. Further, the pest or weed control at 500 g/ha in the assay on Kochia (Kochia scoparia) (setting [6]) came out at 20%; in assay [1] (setting [8]) it was 90%; in assay [2] (setting [10]) it was 80%; in assay [3] (setting [12]) it was 0%; in assay [4] (setting [14]) it was 30%.

As to `CN1C[C@H](c2ccc(C(F)(F)F)cc2)[C@](F)(C(=O)Nc2cccc(F)c2F)C1=O` (racemic) [Compound 1152], the pest or weed control at 125 g/ha in the assay with Kochia (Kochia scoparia) (setting [15]) worked out at 0%; in assay [1] (setting [19]) it was 20%; in assay [2] (setting [21]), 70%; in assay [3] (setting [16]) it was 60%; in assay [4] (setting [17]) it was 0%. The pest or weed control at 500 g/ha in the assay with Kochia (Kochia scoparia) (setting [18]) came out at 0%; in assay [1] (setting [20]), 90%; in assay [2] (setting [22]), 90%; in assay [3] (setting [23]), 80%; in assay [4] (setting [24]), 0%.

As for `CN1C[C@H](c2ccc(F)c(F)c2)[C@@H](C(=S)Nc2ccccc2F)C1=O` (racemic) [Compound 1153], the pest or weed control at 125 g/ha with Kochia (Kochia scoparia) (setting [15]) amounted to 60%; in assay [1] (setting [19]), 80%; in assay [2] (setting [21]), 90%; in assay [3] (setting [16]), 0%; in assay [4] (setting [17]) it was 0%. The pest or weed control at 500 g/ha with Kochia (Kochia scoparia) (setting [18]) amounted to 70%; in assay [1] (setting [20]), 90%; in assay [2] (setting [22]), 90%; in assay [3] (setting [23]), 0%; in assay [4] (setting [24]) it was 0%.

For the molecule `CN1C[C@H](c2cccc(C3CC3)c2)[C@@H](C(=O)Nc2cccc(F)c2F)C1=O` [Compound 816], the pest or weed control at 125 g/ha with Kochia (Kochia scoparia) (setting [18]) was 60%; in assay [1] (setting [20]), 90%; in assay [2] (setting [22]), 90%; in assay [3] (setting [23]), 0%; in assay [4] (setting [24]) it was 20%. In addition, the pest or weed control at 500 g/ha with Kochia (Kochia scoparia) (Preemergence, visual injury vs untreated controls after approximately 10 d, read-out: Kochia plant response rating (0 to 100 scale where 0 is no effect and 100 is complete control)) is 80%; in assay [1] (Preemergence, visual injury vs untreated controls after approximately 10 d, read-out: Barnyardgrass plant response rating (0 to 100 scale where 0 is no effect and 100 is complete control)) it was 90%; in assay [2] (Preemergence, visual injury vs untreated controls after approximately 10 d, read-out: Foxtail, Giant plant response rating (0 to 100 scale where 0 is no effect and 100 is complete control)), 90%; in assay [3] (Preemergence, visual injury vs untreated controls after approximately 10 d, read-out: Pigweed plant response rating (0 to 100 scale where 0 is no effect and 100 is complete control)), 60%; in assay [4] (Preemergence, visual injury vs untreated controls after approximately 10 d, read-out: Ragweed plant response rating (0 to 100 scale where 0 is no effect and 100 is complete control)), 50%.
